Results: publication PMC12292992, “Betulinic Acid ω-Triphenylphosphonium Alkyl Esters: Antiproliferative Activities and In Silico Pharmacokinetic Profiles” (Biomedicines, 2025)

Assays:
SK-MES-1 cells = assay: MTT cell viability assay, lung cancer; format: cell-based; conditions: Homo sapiens, SK-MES-1, 72 h
Procedure: (§1) Human cell lines were obtained from the American Type Culture Collection (ATCC, Manassas, VA, USA). Normal lung MRC-5 fibroblasts (ATCC® CCL-171™), SK-MES-1 lung cancer cells (ATCC® HTB-58™), and J82 bladder carcinoma cells (ATCC® HTB-1™) were grown as monolayers in Eagle’s minimum essential medium (MEM) with Earle’s salts, 2 mM L-glutamine, and 1.5 g/L sodium bicarbonate. Gastric epithelial AGS cells (ATCC® CRL-1739™) were grown as monolayers in Ham’s F-12 medium containing 1 mM L-glutamine and 1.5 g/L sodium bicarbonate. Promyelocytic leukemia HL-60 (ATCC® CCL-240™), colorectal adenocarcinoma HCT-15 (ATCC® CCL-225™), metastatic colorectal COLO205 (ATCC® CCL-222™), and breast cancer AU565 (ATCC® CRL-2351™, ER^−-HER2/neu^+) cells were grown in suspension in an RPMI-1640 medium containing 1 mM sodium pyruvate and 2.0 g/L sodium bicarbonate. Human breast cancer MCF-7 (ATCC® HTB-22™, ER^+-HER2/neu^−) and MDA-MB-231 (ATCC® HTB-26™, ER^−-HER2/neu^−) cells were grown as monolayers in DMEM medium. All media were supplemented with 10% heat-inactivated fetal bovine serum (HI-FBS), 100 IU/mL penicillin G, and 100 µg/mL streptomycin. Cells were maintained at 37 °C in a humidified incubator with 5% CO2.
(§2) MRC-5, SK-MES-1, J82, and AGS cells were seeded at a density of 5 × 10^4 cells/mL in 96-well plates. COLO205, HCT-15, MCF-7, MDA-MB-231, and AU565 cells were seeded at 1 × 10^5 cells/mL, while HL-60 cells were plated at 3 × 10^5 cells/mL. A volume of 100 µL of the cell suspension was added to each well. After 24 h, the compounds were added in increasing concentrations (ranging from 0 to 100 µM), and cells were incubated for 24, 48, or 72 h. The compounds were dissolved in DMSO and diluted in complete medium to a final concentration of 0.5% DMSO. Cells treated with 0.5% DMSO in complete medium were used as viability controls (100%). Etoposide (98% purity, Sigma-Aldrich, St. Louis, MO, USA) was used as the reference compound. Each concentration was tested in quadruplicate, and each experiment was performed twice using independent cell preparations. At the end of the incubation period, cell viability was determined using the MTT reduction assay. The results were transformed into percentages relative to controls, and IC50 values were obtained graphically from the dose–response curves. Results are presented as IC50 values ± standard deviation (SD).

AGS cells = assay: MTT cell viability assay, gastric adenocarcinoma; format: cell-based; conditions: Homo sapiens, 72 h
Procedure: as §1, §2

human cancer cell lines = assay: MTT cell viability, summary over the human cancer cell lines; format: cell-based; conditions: summary statement
Procedure: as §1, §2

COLO205 cells [1] = assay: MTT cell viability assay, metastatic colorectal cancer; format: cell-based, human; conditions: for IC50: Homo sapiens, COLO 205
Procedure: as §1, §2

HCT-15 cells = assay: Annexin V/propidium iodide double staining, flow cytometry; format: cell-based, human; conditions: 24 h
Procedure: (§3) The type of cell death induced by the BA-C4-TPP^+Br^− was assessed by flow cytometry, using Annexin V/propidium iodide (AV/PI) double staining, following the instructions of the Annexin V-FITC Apoptosis Detection Kit (Abcam, Cambridge, UK). Cells were cultured at 5 × 10^4 cells/well in 24-well plates and incubated overnight. Afterwards, cells were treated with increasing concentrations of BA-C4-TPP^+Br^− (1, 2.5, 5, or 10 µM for COLO205 and HCT-15 cells) for 24 h. Finally, cells were trypsinized, resuspended in annexin V binding buffer 1X, adding AV and PI, and incubated for 5 min at room temperature, protected from light. Control corresponds to cells incubated with DMSO 1%. Fluorescence of each probe was assessed by flow cytometry (FACSAria®III, BD Biosciences, Franklin Lakes, NJ, USA). Wavelengths used were 488Ex/530Em nm for AV-FITC and 488Ex/575Em nm for PI. Results are expressed as total apoptotic cells (percentage of AV+/PI− and AV+/PI+ cells), necrotic cells (percentage of AV-/PI+ cells), and live cells (percentage of AV-/PI− cells). Cyflogic software (non-commercial 6th version, CyFlo Ltd., Turku, Finland) was used for data processing.

COLO205 cells [2] = assay: as above; format: cell-based, human; conditions: 24 h
Procedure: as §3

J82 cells = assay: MTT cell viability assay, bladder carcinoma; format: cell-based; conditions: Homo sapiens, J82, 72 h
Procedure: as §1, §2

SMILES: C=C(C)[C@@H]1CC[C@]2(C(=O)OCCCC[P+](c3ccccc3)(c3ccccc3)c3ccccc3)CC[C@]3(C)[C@H](CC[C@@H]4[C@@]5(C)CC[C@H](O)C(C)(C)[C@@H]5CC[C@]43C)[C@@H]12 [BA-C4-TPP^+Br^−, 4-Triphenylphosphoniobutyl 3β-hydroxylup-20(29)-en-28-oate bromide]
- IC50 (SK-MES-1 cells): 0.32 ± 0.08 µM
- IC50 (AGS cells): 0.35 ± 0.02 µM
- IC50 (human cancer cell lines; Homo sapiens, 48 and 72 h of treatment): < 1 µM
- increase in potency (human cancer cell lines; nine human cancer cell lines, relative to BA): over 100 fold
- increase in potency compared to non-modified BA scaffold (COLO205 cells [1]; COLO205 cells at 72 h): ~264 fold
- IC50 (COLO205 cells [1]; COLO205, 24 h): 0.88 ± 0.22 µM
- IC50 (COLO205 cells [1]; COLO205, 48 h): 0.45 ± 0.09 µM
- IC50 (COLO205 cells [1]; COLO205, 72 h): 0.13 ± 0.01 µM
- apoptosis induction (HCT-15 cells; HCT-15, 2.5 μM): 12%
- necrosis induction (HCT-15 cells; HCT-15, 2.5 μM): 7%
- necrotic cell death (HCT-15 cells; HCT-15, 10 μM): ~30%
- apoptosis induction (COLO205 cells [2]; COLO205, 1 μM): ~14%
- apoptosis induction (COLO205 cells [2]; COLO205, 2.5 μM): ~34%
- necrotic cell death (COLO205 cells [2]; COLO205, 5 μM): 15%
- necrotic cell death (COLO205 cells [2]; COLO205, initial concentration (1 μM)): 5%
- IC50 (J82 cells): 0.84 ± 0.02 µM
